Like-named read-outs stand apart in the source and are kept apart here.
Experiments:
Type in all cases: cell-based
[1] = target: T1, EGFR L858R/T790M/C797S (BaF3-LTC cells) (Homo sapiens, UniProt P00533, C797S/L858R/T790M); experiment: EGFR degradation HTRF assay, BaF3-LTC cells; conditions: BaF3-LTC cells; for DC50: EGFR degradation, IC50 (DC50) from curve fit, read-out: DC50(nM) BaF3-LTC; for Dmax: maximum percentage of inhibition (degradation), read-out: Dmax (%) BaF3-LTC
T1 construct: expressed in transfected cells; host or cells: BaF3
Summary of the method: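 EGFR remaining after a 16 h, 37 °C exposure (8 doses, 5-fold steps from 10 uM final, 0.2% DMSO) was quantified by HTRF antibodies in cell lysate. Percent inhibition relative to DMSO control was fitted by four-parameter logistic to give DC50; Dmax denotes maximal degradation.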

[2] = target: T2, EGFR L858R/C797S (BaF3 LC cells) (Homo sapiens, UniProt P00533, C797S/L858R); experiment: EGFR degradation HTRF assay, BaF3 LC cells; conditions: BaF3 LC, 16h treatment; for Dmax: maximum percentage of degradation, read-out: BaF3 LC Dmax (%); for DC50: read-out: BaF3 LC DC50
T2 construct: expressed in transfected cells; host or cells: BaF3

[3] = tested on: EGFR Del19/C797S (H1975-clone #23); experiment: EGFR degradation HTRF assay, H1975-clone #23 DC cells; conditions: for H1975 #23 DC Dmax (%): maximum percentage of degradation
Summary of the method: (§1)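 Lentiviral Del19/T790M/C797S (clone #28) or Del19/C797S (clone #23) EGFR expressed in H1975 with endogenous EGFR knocked out. Cells treated 16 h, 37 °C, 8 doses, 5-fold from 10 uM top, 0.2% DMSO; EGFR read by HTRF after lysis. Degradation % vs DMSO control; DC50, Dmax from four-parameter fit.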

[4] = tested on: EGFR Del19/T790M/C797S (H1975-clone #28); experiment: EGFR degradation HTRF assay, H1975-clone #28 DTC cells
Summary of the method: as §1

[5] = H1975 #23 DC, 16h treatment, read-out: H1975 #23 DC DC50
[6] = H1975 # 28 DTC cells; EGFR degradation, IC50 (DC50) from curve fit; read-out: DC50(nM) H1975 # 28 DTC
[7] = H1975 # 28 DTC cells; maximum percentage of inhibition (degradation)

T2 sequence (P00533 25-1210 C797S/L858R): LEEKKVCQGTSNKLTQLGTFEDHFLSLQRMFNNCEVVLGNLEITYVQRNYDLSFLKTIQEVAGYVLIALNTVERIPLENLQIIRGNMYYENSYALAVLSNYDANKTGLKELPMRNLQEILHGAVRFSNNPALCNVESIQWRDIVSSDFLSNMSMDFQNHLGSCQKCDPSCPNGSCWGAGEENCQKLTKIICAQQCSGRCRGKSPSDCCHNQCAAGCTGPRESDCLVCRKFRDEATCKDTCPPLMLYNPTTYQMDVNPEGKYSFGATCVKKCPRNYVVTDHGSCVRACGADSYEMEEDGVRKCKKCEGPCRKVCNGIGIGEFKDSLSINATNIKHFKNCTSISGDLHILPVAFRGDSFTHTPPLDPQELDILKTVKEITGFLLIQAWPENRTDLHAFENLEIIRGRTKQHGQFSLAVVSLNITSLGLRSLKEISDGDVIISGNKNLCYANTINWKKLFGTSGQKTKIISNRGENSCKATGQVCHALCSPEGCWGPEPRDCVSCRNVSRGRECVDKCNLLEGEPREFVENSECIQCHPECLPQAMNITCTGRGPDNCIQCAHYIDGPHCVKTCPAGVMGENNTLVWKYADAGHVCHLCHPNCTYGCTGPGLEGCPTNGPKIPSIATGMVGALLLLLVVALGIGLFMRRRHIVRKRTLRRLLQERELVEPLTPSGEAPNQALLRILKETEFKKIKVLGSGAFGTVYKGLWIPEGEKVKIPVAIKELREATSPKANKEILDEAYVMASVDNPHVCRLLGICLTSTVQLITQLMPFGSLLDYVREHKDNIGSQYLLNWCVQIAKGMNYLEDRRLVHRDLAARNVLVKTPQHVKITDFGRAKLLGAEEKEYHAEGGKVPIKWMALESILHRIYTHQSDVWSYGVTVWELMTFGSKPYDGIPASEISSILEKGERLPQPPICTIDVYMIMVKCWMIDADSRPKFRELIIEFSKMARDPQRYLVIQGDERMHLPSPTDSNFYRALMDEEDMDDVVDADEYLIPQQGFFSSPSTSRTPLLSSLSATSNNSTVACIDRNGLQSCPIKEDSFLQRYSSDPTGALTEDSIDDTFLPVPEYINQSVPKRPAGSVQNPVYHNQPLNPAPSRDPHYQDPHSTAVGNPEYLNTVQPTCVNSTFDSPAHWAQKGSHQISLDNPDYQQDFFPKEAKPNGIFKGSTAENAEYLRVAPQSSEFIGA
T1 sequence (P00533 25-1210 T790M/C797S/L858R): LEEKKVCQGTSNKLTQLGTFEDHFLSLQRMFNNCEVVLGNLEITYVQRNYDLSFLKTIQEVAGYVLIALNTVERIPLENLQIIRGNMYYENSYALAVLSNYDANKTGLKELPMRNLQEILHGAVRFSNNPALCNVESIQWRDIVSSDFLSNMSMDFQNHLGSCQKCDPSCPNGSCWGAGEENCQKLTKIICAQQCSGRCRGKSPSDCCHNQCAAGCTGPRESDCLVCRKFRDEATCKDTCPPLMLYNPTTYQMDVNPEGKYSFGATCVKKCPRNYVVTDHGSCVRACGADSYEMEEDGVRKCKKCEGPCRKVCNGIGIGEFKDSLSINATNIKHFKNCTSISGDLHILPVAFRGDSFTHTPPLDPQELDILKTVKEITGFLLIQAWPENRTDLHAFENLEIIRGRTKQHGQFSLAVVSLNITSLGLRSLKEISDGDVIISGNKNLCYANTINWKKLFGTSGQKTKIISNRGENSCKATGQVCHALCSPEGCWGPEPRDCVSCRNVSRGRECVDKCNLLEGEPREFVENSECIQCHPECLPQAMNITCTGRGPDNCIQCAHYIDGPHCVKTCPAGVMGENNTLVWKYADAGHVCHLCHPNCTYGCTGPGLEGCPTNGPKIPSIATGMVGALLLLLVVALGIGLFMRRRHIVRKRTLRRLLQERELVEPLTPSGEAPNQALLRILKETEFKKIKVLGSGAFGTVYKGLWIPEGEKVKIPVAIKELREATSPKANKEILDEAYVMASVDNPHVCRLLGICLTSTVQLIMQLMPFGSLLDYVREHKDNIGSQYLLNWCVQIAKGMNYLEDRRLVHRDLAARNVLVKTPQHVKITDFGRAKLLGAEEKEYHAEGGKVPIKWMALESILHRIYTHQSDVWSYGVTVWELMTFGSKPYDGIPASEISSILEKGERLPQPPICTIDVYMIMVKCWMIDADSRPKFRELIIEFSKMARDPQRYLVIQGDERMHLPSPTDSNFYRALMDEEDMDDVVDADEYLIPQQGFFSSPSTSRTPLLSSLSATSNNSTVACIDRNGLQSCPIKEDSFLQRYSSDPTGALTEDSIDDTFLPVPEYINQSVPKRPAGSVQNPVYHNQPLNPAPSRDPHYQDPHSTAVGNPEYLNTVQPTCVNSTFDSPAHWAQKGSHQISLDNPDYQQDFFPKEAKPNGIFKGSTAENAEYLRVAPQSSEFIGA

Row | Compound | DC50 [1] | Dmax [1] | Dmax [2] | DC50 [2] | DC50 [3, 5] | DC50 [4, 6] | H1975 #23 DC Dmax (%) ([3]; 16h treatment) | Dmax (%) H1975 # 28 DTC [4, 7] | DC50 ([3]; read-out: H1975 #23 DC DC50, 16h treatment) | DC50 ([4]; read-out: DC50(nM) H1975 # 28 DTC; H1975 # 28 DTC cells; EGFR degradation, IC50 (DC50) from curve fit)
1 | CCc1ccc2c(P(C)(C)=O)c(Nc3nc(Nc4cc(CC)c(N5CCC(N6CCN(C(=O)[C@@H]7CCN(c8cc(F)c([C@H]9CCC(=O)NC9=O)c(F)c8)C7)CC6)CC5)cc4OC)ncc3Br)cc(F)c2n1 [Example 533, (R)-3-(4-((R)-3-(4-(1-(4-((5-bromo-4-((5-(dimethylphosphoryl)-2-ethyl-8-fluoroquinolin-6-yl)amino)pyrimidin-2-yl)amino)-2-ethyl-5-methoxyphenyl)piperidin-4-yl)piperazine-1-carbonyl)pyrrolidin-1-yl)-2,6-difluorophenyl)piperidine-2,6-dione] | 5.05 nM | 97.2% | 90.8% | 28.8 nM | 7.47 nM | 1.18 nM | 73.47% | 83.78% |  | 
2 | CCOc1cc(N2CCC(N3CCN(CCc4cc5oc(=O)n(C6CCC(=O)NC6=O)c5cc4F)CC3)CC2)c(CC)cc1Nc1ncc(Br)c(Nc2ccc3nc(CC)ccc3c2P(C)(C)=O)n1 (centres unmarked) [Example 492, 3-(6-(2-(4-(1-(4-((5-bromo-4-((5-(dimethylphosphoryl)-2-ethylquinolin-6-yl)amino)pyrimidin-2-yl)amino)-5-ethoxy-2-ethylphenyl)piperidin-4-yl)piperazin-1-yl)ethyl)-5-fluoro-2-oxobenzo[d]oxazol-3(2H)-yl)piperidine-2,6-dione] | 3.39 nM | 95.5% | 79.5% | 4.28 nM | 3.07 nM | 0.605 nM | 51.44% | 70.88% |  | 
3 | CCc1ncc2c(P(C)(C)=O)c(Nc3nc(Nc4cc(CC)c(N5CCC(N6CCN(CCc7ccc8c(c7)oc(=O)n8C7CCC(=O)NC7=O)CC6)CC5)cc4OC)ncc3Br)ccc2n1 (centres unmarked) [Example 499, 3-(6-(2-(4-(1-(4-((5-bromo-4-((5-(dimethylphosphoryl)-2-ethylquinazolin-6-yl)amino)pyrimidin-2-yl)amino)-2-ethyl-5-methoxyphenyl)piperidin-4-yl)piperazin-1-yl)ethyl)-2-oxobenzo[d]oxazol-3(2H)-yl)piperidine-2,6-dione] | 1.95 nM |  |  | 0.955 nM |  |  | 61.96% | 77.41% | 0.646 nM | 0.185 nM
4 | CCc1ccc2c(P(C)(C)=O)c(Nc3nc(Nc4cc(CC)c(N5CCC(N6CCN(C(=O)[C@H]7CN(c8cc(F)c([C@H]9CCC(=O)NC9=O)c(F)c8)CC7(C)C)CC6)CC5)cc4OC)ncc3Br)ccc2n1 [Example 754, (R)-3-(4-((R)-4-(4-(1-(4-((5-bromo-4-((5-(dimethylphosphoryl)-2-ethylquinolin-6-yl)amino)pyrimidin-2-yl)amino)-2-ethyl-5-methoxyphenyl)piperidin-4-yl)piperazine-1-carbonyl)-3,3-dimethylpyrrolidin-1-yl)-2,6-difluorophenyl)piperidine-2,6-dione] | 13.4 nM |  |  | 36.1 nM | 5.6 nM | 3.22 nM | 71.73% | 86.62% |  | 
5 | CCOc1cc(N2CCC(N3CCN(CCc4cccc5c4C(C)(C)C(=O)N5C4CCC(=O)NC4=O)CC3)CC2)c(CC)cc1Nc1ncc(Br)c(Nc2ccc3c(=O)n(CC)ncc3c2P(C)(C)=O)n1 (centres unmarked) [Example 501, 3-(4-(2-(4-(1-(4-((5-bromo-4-((5-(dimethylphosphoryl)-2-ethyl-1-oxo-1,2-dihydrophthalazin-6-yl)amino)pyrimidin-2-yl)amino)-5-ethoxy-2-ethylphenyl)piperidin-4-yl)piperazin-1-yl)ethyl)-3,3-dimethyl-2-oxoindolin-1-yl)piperidine-2,6-dione] | 3.34 nM |  |  | 1.49 nM | 3.29 nM | 0.759 nM | 65.52% | 85.93% |  | 
6 | CCc1ccc2c(P(C)(C)=O)c(Nc3nc(Nc4cc(CC)c(N5CCC(N6CCN(CCc7cccc8c7oc(=O)n8C7CCC(=O)NC7=O)CC6)CC5)cc4OC)ncc3Br)ccc2n1 (centres unmarked) [Example 509, 3-(7-(2-(4-(1-(4-((5-bromo-4-((5-(dimethylphosphoryl)-2-ethylquinolin-6-yl)amino)pyrimidin-2-yl)amino)-2-ethyl-5-methoxyphenyl)piperidin-4-yl)piperazin-1-yl)ethyl)-2-oxobenzo[d]oxazol-3(2H)-yl)piperidine-2,6-dione] | 7.93 nM | 92.5% | 80.4% | 15.5 nM | 1.94 nM | 0.887 nM | 77.77% | 79.34% |  | 
7 | CCc1cc(Nc2ncc(Br)c(Nc3ccc4nc(C)ccc4c3P(C)(C)=O)n2)c(OC)cc1N1CCC(N2CCN(CCc3ccc4c(c3)oc(=O)n4C3CCC(=O)NC3=O)CC2)CC1 (centres unmarked) [Example 490, 3-(6-(2-(4-(1-(4-((5-bromo-4-((5-(dimethylphosphoryl)-2-methylquinolin-6-yl)amino)pyrimidin-2-yl)amino)-2-ethyl-5-methoxyphenyl)piperidin-4-yl)piperazin-1-yl)ethyl)-2-oxobenzo[d]oxazol-3(2H)-yl)piperidine-2,6-dione] | 1.3 nM | 92.8% | 95.7% | 2.41 nM | 0.974 nM | 0.2 nM | 64.67% | 80.5% |  | 

Second part, led by results:

Row | DC50 [1] | Dmax [1] | Dmax [2] | DC50 [2] | DC50 [3, 5] | DC50 [4, 6] | Compound | H1975 #23 DC Dmax (%) ([3]; 16h treatment) | Dmax (%) H1975 # 28 DTC [4, 7] | DC50 ([3]; read-out: H1975 #23 DC DC50, 16h treatment) | DC50 ([4]; read-out: DC50(nM) H1975 # 28 DTC; H1975 # 28 DTC cells; EGFR degradation, IC50 (DC50) from curve fit)
8 | 2.49 nM | 90.7% | 93.3% | 1.23 nM | 0.828 nM | 0.712 nM | CCOc1cc(N2CCC(N3CCN(CCc4cc5oc(=O)n(C6CCC(=O)NC6=O)c5cc4C)CC3)CC2)c(CC)cc1Nc1ncc(Br)c(Nc2cc(F)c3nc(CC)ccc3c2P(C)(C)=O)n1 (centres unmarked) [Example 553, 3-(6-(2-(4-(1-(4-((5-bromo-4-((5-(dimethylphosphoryl)-2-ethyl-8-fluoroquinolin-6-yl)amino)pyrimidin-2-yl)amino)-5-ethoxy-2-ethylphenyl)piperidin-4-yl)piperazin-1-yl)ethyl)-5-methyl-2-oxobenzo[d]oxazol-3(2H)-yl)piperidine-2,6-dione] | 53.56% | 61.54% |  | 
9 | 5.83 nM |  |  | 16.6 nM | 4.73 nM | 0.802 nM | CCOc1cc(N2CCC(N3CCN(CCc4cc(F)c([C@H]5CCC(=O)NC5=O)c(F)c4)CC3)CC2)c(CC)cc1Nc1ncc(Br)c(Nc2cc(F)c3nc(CC)ccc3c2P(C)(C)=O)n1 [Example 486, (R)-3-(4-(2-(4-(1-(4-((5-bromo-4-((5-(dimethylphosphoryl)-2-ethyl-8-fluoroquinolin-6-yl)amino)pyrimidin-2-yl)amino)-5-ethoxy-2-ethylphenyl)piperidin-4-yl)piperazin-1-yl)ethyl)-2,6-difluorophenyl)piperidine-2,6-dione] | 80.02% | 85.73% |  | 
10 | 2.42 nM | 84.8% | 92% | 1.11 nM | 1.11 nM | 0.413 nM | CCOc1cc(N2CCC(N3CCN(CCc4ccc5c(c4)oc(=O)n5C4CCC(=O)NC4=O)CC3)CC2)c(CC)cc1Nc1ncc(Br)c(Nc2cc(F)c3nc(CC)ccc3c2P(C)(C)=O)n1 (centres unmarked) [Example 500, 3-(6-(2-(4-(1-(4-((5-bromo-4-((5-(dimethylphosphoryl)-2-ethyl-8-fluoroquinolin-6-yl)amino)pyrimidin-2-yl)amino)-5-ethoxy-2-ethylphenyl)piperidin-4-yl)piperazin-1-yl)ethyl)-2-oxobenzo[d]oxazol-3(2H)-yl)piperidine-2,6-dione] | 55.74% | 71.9% |  | 
11 | 12.9 nM | 88.7% | 73.4% | 50.8 nM | 7.2 nM | 1.86 nM | CCOc1cc(N2CCC(N3CCN(CCc4cc(F)c(C5CCC(=O)NC5=O)c(F)c4)CC3)CC2)c(CC)cc1Nc1ncc(Br)c(Nc2ccc3nc(C)ccc3c2P(C)(C)=O)n1 (centres unmarked) [Example 482, 3-(4-(2-(4-(1-(4-((5-bromo-4-((5-(dimethylphosphoryl)-2-methylquinolin-6-yl)amino)pyrimidin-2-yl)amino)-5-ethoxy-2-ethylphenyl)piperidin-4-yl)piperazin-1-yl)ethyl)-2,6-difluorophenyl)piperidine-2,6-dione] | 70.91% | 69.65% |  | 

— patent publication US20230265116A1, “DEGRADATION OF (EGFR) BY CONJUGATION OF EGFR INHIBITORS WITH E3 LIGASE LIGAND AND METHODS OF USE” (BEIGENE, LTD., priority 2020, published 2023)
